The values below come from ChEMBL document CHEMBL4177637, “Proapoptotic modification of substituted isoindolinones as MDM2-p53 inhibitors” (2017).

The structures appear in SMILES notation. Calls of active or inactive are those of the source. The rule behind the calls is not given here. Some results are limits rather than exact numbers.

In assay [1] the test system is HCT-116. The assay can be described thus: Growth inhibition of human HCT116 cells harboring p53+/+ after 48 hrs by Hoechst 33258 staining based fluorescence assay. The format is functional. The following applies: HCT-116, 48 h.
Assay [2] relates to HCT-116. The assay can be described thus: Growth inhibition of human p53 knockdown HCT116 cells after 48 hrs by Hoechst 33258 staining based fluorescence assay. The format is functional. The following applies: HCT-116, 48 h.
Assay [3] addresses Tumour suppressor p53/oncoprotein Mdm2 (Homo sapiens) (UniProt P04637+Q00987). Briefly: Inhibition of MDM2/p53 in human HCT116 cells at 10 uM after 24 hrs by Western blot method. The format is cell-based. For orientation: A western blot detects proteins with antibodies after separation by electrophoresis.
Assay [4] relates to U2OS. Briefly: Induction of apoptosis in human U2OS cells at 10 uM after 24 hrs by Annexin V-FITC/propidium iodide based FACS analysis (Rvb= 0.1%). The format is functional. (In flow cytometry, cells or beads pass a laser one at a time.)
The subject of assay [5] is HCT-116. Briefly: Selectivity ratio of GI50 for human p53 knockdown HCT116 cells to GI50 for human HCT116 cells harboring p53+/+. The format is functional.

Chain of Tumour suppressor p53/oncoprotein Mdm2 (Homo sapiens) (P04637 whole entry, looked up): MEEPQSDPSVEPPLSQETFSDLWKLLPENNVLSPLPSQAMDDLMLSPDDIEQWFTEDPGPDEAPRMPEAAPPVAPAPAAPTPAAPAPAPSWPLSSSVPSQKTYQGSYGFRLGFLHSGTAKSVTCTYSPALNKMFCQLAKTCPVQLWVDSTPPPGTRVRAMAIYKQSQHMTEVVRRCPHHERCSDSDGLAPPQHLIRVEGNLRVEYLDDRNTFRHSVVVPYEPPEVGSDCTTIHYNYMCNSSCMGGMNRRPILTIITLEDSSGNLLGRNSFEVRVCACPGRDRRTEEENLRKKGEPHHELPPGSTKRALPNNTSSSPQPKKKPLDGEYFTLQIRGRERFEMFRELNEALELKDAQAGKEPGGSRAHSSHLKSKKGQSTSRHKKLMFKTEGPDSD
Chain of Tumour suppressor p53/oncoprotein Mdm2 (Homo sapiens) (Q00987 whole entry, looked up): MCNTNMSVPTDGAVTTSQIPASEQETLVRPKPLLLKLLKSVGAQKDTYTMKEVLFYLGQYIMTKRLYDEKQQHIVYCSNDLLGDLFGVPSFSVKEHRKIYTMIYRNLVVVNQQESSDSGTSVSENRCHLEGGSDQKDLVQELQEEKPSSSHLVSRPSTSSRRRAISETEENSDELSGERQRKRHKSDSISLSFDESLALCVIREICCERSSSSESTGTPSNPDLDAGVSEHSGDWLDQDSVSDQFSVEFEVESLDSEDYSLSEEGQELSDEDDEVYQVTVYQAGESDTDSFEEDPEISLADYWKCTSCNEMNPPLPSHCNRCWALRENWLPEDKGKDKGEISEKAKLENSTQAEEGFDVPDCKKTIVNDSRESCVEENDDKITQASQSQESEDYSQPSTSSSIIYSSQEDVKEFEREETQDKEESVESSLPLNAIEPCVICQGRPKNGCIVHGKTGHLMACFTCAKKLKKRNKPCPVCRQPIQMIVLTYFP

As usually defined, the GI50 is the concentration that inhibits growth by half. A low value points to more potent growth inhibition. Take `CC(=O)OCCCOC1(c2ccc(Cl)cc2)c2ccccc2C(=O)N1Cc1ccccc1` (stereo not given): the GI50 in assay [1] is 50 µM; in assay [2], 80 µM.
For the compound `CC(C)(COC(=O)[C@@H](N)c1ccccc1)COC1(c2ccc(Cl)cc2)c2ccccc2C(=O)N1Cc1ccccc1` (stereo not given in full), the GI50 worked out at 15 µM in assay [1] and 44 µM in assay [2].
In the case of `CC(=O)OCC(C)(C)COC1(c2ccc(Cl)cc2)c2ccccc2C(=O)N1Cc1ccccc1` (stereo not given), the GI50 in assay [1] amounted to 38 µM; in assay [2] it was 70 µM.
Turning to `CC(C)(CO)COC1(c2ccc(Cl)cc2)c2ccccc2C(=O)N1Cc1ccc(Cl)cc1` (stereo not given), the inhibition result in assay [3] was “Active”. In addition, the GI50 was 50 µM in assay [1] and 65 µM in assay [2]. The Activity in assay [4] stood at 2%.
`CC(=O)OCCCOC1(c2ccc(Cl)cc2)c2ccccc2C(=O)N1Cc1ccc(Cl)cc1` (stereo not given): the GI50 was 46 µM in assay [1] and 68 µM in assay [2].
On to `CC(C)(CO)COC1(c2ccc(Cl)cc2)c2ccccc2C(=O)N1Cc1ccccc1` (stereo not given), for which the GI50 in assay [1] was 71 µM; in assay [2], 82 µM.
As to `CC(=O)OCC(C)(C)COC1(c2ccc(Cl)cc2)c2ccccc2C(=O)N1Cc1ccc(Cl)cc1` (stereo not given), the GI50 in assay [1] was determined as 35 µM; in assay [2], 70 µM.
For `O=C1c2ccccc2C(OCCCO)(c2ccc(Cl)cc2)N1Cc1ccc(Cl)cc1` (stereo not given), in that order: 60 µM and 68 µM.
With `N[C@H](C(=O)OCCCOC1(c2ccc(Cl)cc2)c2ccccc2C(=O)N1Cc1ccc(Cl)cc1)c1ccccc1` (stereo not given in full), the GI50 was 12 µM in assay [1] and 45 µM in assay [2].
Consider `CC(C)[C@H](N)C(=O)OCCCOC1(c2ccc(Cl)cc2)c2ccccc2C(=O)N1Cc1ccc(Cl)cc1` (stereo not given in full), for which the GI50 in assay [1] came to 16 µM; in assay [2], 60 µM.
Take `O=C1c2ccccc2C(OCCCO)(c2ccc(Cl)cc2)N1Cc1ccccc1` (stereo not given): the GI50 in assay [1] turned out to be 79 µM; in assay [2], 90 µM.
As for `CC(C)[C@H](N)C(=O)OCCCOC1(c2ccc(Cl)cc2)c2ccccc2C(=O)N1Cc1ccccc1` (stereo not given in full), the concentration for 50% growth inhibition (GI50) in assay [1] was 20 µM; in assay [2] it was 65 µM.
In the case of `CC(C)[C@H](N)C(=O)OCC(C)(C)COC1(c2ccc(Cl)cc2)c2ccccc2C(=O)N1Cc1ccc(Cl)cc1` (stereo not given in full), the GI50 in assay [1] amounted to 11 µM; in assay [2] it was 40 µM.
As to `CC(C)(COC(=O)[C@@H](N)c1ccccc1)COC1(c2ccc(Cl)cc2)c2ccccc2C(=O)N1Cc1ccc(Cl)cc1` (stereo not given in full), the RatioGI50 entry in assay [5] is “<=4.75”. Moreover, the inhibition result in assay [3] was “Active”. The GI50 was determined as 8 µM in assay [1] and 38 µM in assay [2]. In assay [4], this compound returned an Activity of 33.1%.
Take `N[C@H](C(=O)OCCCOC1(c2ccc(Cl)cc2)c2ccccc2C(=O)N1Cc1ccccc1)c1ccccc1` (stereo not given in full): the GI50 in assay [1] was 14 µM; in assay [2], 43 µM.
As to `CC(C)[C@H](N)C(=O)OCC(C)(C)COC1(c2ccc(Cl)cc2)c2ccccc2C(=O)N1Cc1ccccc1` (stereo not given in full), the figures for the GI50 in assay [1] and in assay [2] were 20 µM and 65 µM, respectively.
For `COc1ccc(C2=N[C@@H](c3ccc(Cl)cc3)[C@@H](c3ccc(Cl)cc3)N2C(=O)N2CCNC(=O)C2)c(OC(C)C)c1` [NUTLIN-3], the figures for the GI50 in assay [1] and in assay [2] were 8 µM and 27 µM, respectively. This compound yielded an Activity in assay [4] of 31%.
